{"source": "patent US8367727B2", "about": "“Method of using abscisic acid to treat diseases and disorders” (priority 2006, dated 2013)", "key": {"PPAR γ": {"target": "T1, PPAR γ (Mus musculus, UniProt P37238)", "T1 construct": "expressed in transfected cells; host or cells: 3T3-L1 pre-adipocytes (ATCC)", "T1 sequence (P37238 1-505)": "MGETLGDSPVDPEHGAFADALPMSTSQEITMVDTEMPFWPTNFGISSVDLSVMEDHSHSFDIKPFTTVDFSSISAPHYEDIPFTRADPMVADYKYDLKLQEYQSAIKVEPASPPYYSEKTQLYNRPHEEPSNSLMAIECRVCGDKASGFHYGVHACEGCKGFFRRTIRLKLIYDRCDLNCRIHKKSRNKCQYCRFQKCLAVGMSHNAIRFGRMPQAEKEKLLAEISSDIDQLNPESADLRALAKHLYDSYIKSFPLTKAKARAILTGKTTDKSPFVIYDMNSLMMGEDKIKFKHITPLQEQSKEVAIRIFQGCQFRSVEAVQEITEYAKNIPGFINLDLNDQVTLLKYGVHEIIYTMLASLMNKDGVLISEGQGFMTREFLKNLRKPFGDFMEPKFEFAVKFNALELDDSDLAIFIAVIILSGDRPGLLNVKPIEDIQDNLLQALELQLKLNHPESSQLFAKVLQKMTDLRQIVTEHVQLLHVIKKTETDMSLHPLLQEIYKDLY", "test": "PPAR γ transactivation (luciferase reporter) in transfected 3T3-L1 pre-adipocytes", "format": "cell-based", "description": "Transformation plasmid DNA was performed using One Shot TOP10 (Invitrogen, Carlsbad, Calif.). Briefly, […] of the ligation reaction were added to a thawed 50 μl vial of One Shot® cells for each reaction. The vials were then set on ice for 30 minutes, followed by 30 seconds incubation in a 42° C. water bath. Afterwards, 250 μl of pre-warmed S.O.C medium was added to each vial. Vials were then secured on their sides in a microcentrifuge rack and were placed in a Gyromax 727 orbital shaking incubator (Amerex Instruments, Lafayette, Calif.) and incubated at 37° C. at 225 rpm. After 1 hour incubation, 100 μl of each transformation vial was spread on separate, labeled LB agar plates (Sigma-Aldrich, Milwaukee, Wis.), inverted, and incubated at 37° C. overnight. Colonies were selected and isolated using Plasmid Maxi Kit (Qiagen, Valencia, Calif.) according to manufacturer's instructions. After isolation, the plasmids were transfected into 3T3-L1 pre-adipocytes (American Type Culture Collection, Manassas, Va.) using the Targefect-BAC transfection kit. (Targeting Systems, Santee, Calif.). Briefly, 3T3-L1 cells were cultured in complete DMEM high glucose media (Invitrogen) at 37° C. for 2 days until confluence. After digestion with 2 ml trypsin (Mediatech, Herndon, Va.), the cells were resuspended in 6 ml high glucose DMEM (Mediatech) and then aliquoted into a 24 well plate. […] On the day of the reading, the cells were washed with 500 μl PBS and lysed with 100 μl lysis reagent (Promega, Madison, Wis.). After 15 minutes, lysed cells were collected and luciferase activity for each concentration was calculated using the Dual-Luciferase reporter assay system (Promega) and TD-20/20 Single-Tube Luminometer (Turner Biosystems, Sunnyvale, Calif.) according to manufacturers' instructions. Relative luciferase activity (RLA) was calculated as a ratio of the chemiluminescence 10 seconds after the Luciferase Assay Reagent II (Promega) was added over the chemiluminescence 10 seconds after the Stop&Glo Reagent (Promega). […]"}, "[1]": {"tested_on": "PPAR γ and PPAR γ-responsive genes in WAT", "test": "Quantitative real-time RT-PCR of white adipose tissue (WAT) of db/db mice", "format": "in vivo", "description": "Complementary DNA (cDNA) concentrations for β-actin, PPAR γ, PPAR α, PPAR δ, adiponectin, CD36, aP2, and TNF-α were examined by real-time quantitative PCR using and iCycler IQ System and the iQ SYBR green supermix (Bio-Rad). SYBR green I is a general double-stranded DNA intercalating dye and, therefore, may detect nonspecific products and primer/dimers in addition to the amplicon of interest. In order to determine the number of products produced during the real-time PCR, a melting curve analysis was performed on each product. Real-time PCR was used to measure the starting amount of nucleic acid of each unknown sample of cDNA on the same 96-well plate. Results are presented as starting quantity of cDNA (picograms) per microgram of mRNA."}, "db/db mice": {"tested_on": "db/db mice", "test": "Fasting glucose, plasma MCP-1, plasma and liver triglycerides, hepatic steatosis, body weight in db/db mice (Example 9)", "format": "in vivo", "description": "Hepatic Steatosis, plasma MCP-1 and liver triglyceride content Liver specimens were excised and immediately fixed in 10% phosphate buffered neutral formalin, embedded in paraffin, cut at thicknesses of 5 microns and stained with hematoxylin and eosin (H&E) for histological examination. For hepatic triglyceride assessment, livers fragments (50-100 mg) were extracted for 16 hours at 4° C. with 4 ml CHCl/methanol (2:1, vol/vol). Two milliliters of 0.6% NaCl were then added to the extract, and the mixture was centrifuged at 2,000×g for 20 minutes. Lipids were isolated by nitrogen evaporation, dissolved in 100 μl isopropanol, and quantified with a triglyceride assay kit (Stanbio). The Triglyceride Assay Kit (Sigma) and Ready-set-go MCP-1 ELISA (ebioscience) were used to quantify plasma TGs and MCP-1, respectively, according to manufacturer's instructions."}, "[2]": {"conditions": "100 mg ABA/kg diet, 36 days, P<0.01"}, "[3]": {"conditions": "db/db mice, 100 mg/kg diet, 36 days, vs control high-fat diet"}}, "data": [{"smiles": "CC1=CC(=O)CC(C)(C)C1(O)/C=C/C(C)=C\\C(=O)O", "note": "(racemic) [ABA, abscisic acid]", "values": [{"measurement": "PPAR γ activity at 50 μM versus 10 μM", "setting": "PPAR γ; 50 μM ABA", "value": "No additional increase in PPAR γ activity"}, {"measurement": "potency relative to rosiglitazone (times less potent)", "setting": "PPAR γ; in vitro, 3T3-L1", "value": 10, "unit": "fold"}, {"measurement": "ABA concentration at which relative luciferase activity begins to be significantly increased", "setting": "PPAR γ; racemic ABA 1, 2.5, 5, 10, 50 μM, 24 hours", "value": 10, "unit": "µM"}, {"measurement": "mRNA expression of PPAR α or PPAR δ", "setting": "[1]; 100 mg ABA/kg diet, 36 days", "value": "no significant differences"}, {"measurement": "WAT expression of CD36 mRNA", "setting": "[1]; [2]", "value": "significant increase"}, {"measurement": "WAT expression of PPAR γ mRNA", "setting": "[1]; [2]", "value": "significant increase"}, {"measurement": "WAT expression of aP2 mRNA", "setting": "[1]; 100 mg ABA/kg diet, 36 days, P<0.02", "value": "significant increase"}, {"measurement": "WAT expression of adiponectin mRNA", "setting": "[1]; 100 mg ABA/kg diet, 36 days, P<0.05", "value": "significant increase"}, {"measurement": "TNF-α mRNA expression in WAT", "setting": "[1]; ABA-fed db/db mice, P<0.05", "value": "down-regulated"}, {"measurement": "MCP-1 protein concentrations in plasma", "setting": "db/db mice; ABA-fed db/db mice", "value": "significantly decreased"}, {"measurement": "decrease in plasma MCP-1", "setting": "db/db mice; ABA-fed db/db mice", "value": 4, "unit": "fold"}, {"measurement": "hepatic steatosis, liver histology", "setting": "db/db mice; ABA-fed db/db mice", "value": "less severe"}, {"measurement": "fasting blood glucose (FBG)", "setting": "db/db mice; [3]", "value": "significantly lower"}, {"measurement": "plasma TGs concentrations", "setting": "db/db mice; [3]", "value": "significantly lower"}, {"measurement": "food intake or body weights", "setting": "db/db mice; db/db mice, throughout the experiment", "value": "did not alter food intake or body weights"}, {"measurement": "amount of liver triglycerides", "setting": "db/db mice; vs control diet", "value": "significantly lower"}]}]}
